Test results taken from US4471131A, “Novel silyl esters of N-phosphonomethylglycine” (Monsanto Company, priority 1983, dated 1984).

Assays:
Experiment in all cases: post-emergence herbicidal activity, greenhouse
Type in all cases: in vivo
Barnyardgrass = system: Barnyardgrass
In short: (§1)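 Using pans of compacted topsoil, seeds were pressed in, covered, and grown on a greenhouse sand bench with subirrigation. Once two to three weeks old, plants were sprayed individually in a chamber; pans then returned to the greenhouse, and injury versus controls was noted around 2 and 4 WAT.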

Canada Thistle = details: Table II
In short: as §1

Cocklebur = system: Cocklebur
In short: as §1

Common Lambsquarters = system: Common Lambsquarters
In short: as §1

Downy Brome = system: Downy Brome
In short: as §1

Hemp Sesbania = details: Table III, formulated in anhydrous tetrahydrofuran
In short: as §1

Johnsongrass = details: Table II
In short: as §1

Large Crabgrass = details: Table III, formulated in anhydrous tetrahydrofuran
In short: as §1

[1] = Table II, 2 WAT, 5.6 kg/h, formulated in anhydrous tetrahydrofuran
[2] = Table II, 2 WAT, 11.2 kg/h, formulated in anhydrous tetrahydrofuran
[3] = Table II, 4 WAT, 11.2 kg/h, formulated in anhydrous tetrahydrofuran
[4] = Table III, 2 WAT, 1.1 kg/h, formulated in anhydrous tetrahydrofuran
[5] = Table III, 2 WAT, 5.6 kg/h, formulated in anhydrous tetrahydrofuran
[6] = Table III, 2 WAT, .28 kg/h, formulated in anhydrous tetrahydrofuran
[7] = Table III, 4 WAT, 5.6 kg/h, formulated in anhydrous tetrahydrofuran
[8] = 2 WAT, 5.6 kg/h, formulated in anhydrous tetrahydrofuran
[9] = 2 WAT, 11.2 kg/h, formulated in anhydrous tetrahydrofuran
[10] = 4 WAT, 11.2 kg/h, formulated in anhydrous tetrahydrofuran

CC(C)(C)[Si](OP(=O)(O)CNCC(=O)O)(c1ccccc1)c1ccccc1 [Ex. 5, Glycine, N-((([(1,1-Dimethylethyl)Diphenylsilyl]oxy)-Hydroxyphosphinyl)-Methyl)-,]
Plant Response Index (K) (Barnyardgrass; Table II, 2 WAT, 5.6 kg/h): 0 (0-24% inhibition)
Plant Response Index (K) (Barnyardgrass; [1]): 0 (0-24% inhibition)
Plant Response Index (K) (Barnyardgrass; Table II, 2 WAT, 11.2 kg/h): 1 (25-49% inhibition)
Plant Response Index (K) (Barnyardgrass; [2]): 1 (25-49% inhibition)
Plant Response Index (K) (Barnyardgrass; Table II, 4 WAT, 5.6 kg/h): 0 (0-24% inhibition)
Plant Response Index (K) (Barnyardgrass; Table II, 4 WAT, 11.2 kg/h): 2 (50-74% inhibition)
Plant Response Index (K) (Barnyardgrass; [3]): 0 (0-24% inhibition)
Plant Response Index (K) (Barnyardgrass; [4]): 0 (0-24% inhibition)
Plant Response Index (K) (Barnyardgrass; [5]): 0 (0-24% inhibition)
Plant Response Index (K) (Barnyardgrass; [6]): 0 (0-24% inhibition)
Plant Response Index (K) (Barnyardgrass; [7]): 0 (0-24% inhibition)
Plant Response Index (A) (Canada Thistle; 2 WAT, 5.6 kg/h): 1 (25-49% inhibition)
Plant Response Index (A) (Canada Thistle; [8]): 0 (0-24% inhibition)
Plant Response Index (A) (Canada Thistle; 2 WAT, 11.2 kg/h): 1 (25-49% inhibition)
Plant Response Index (A) (Canada Thistle; [9]): 0 (0-24% inhibition)
Plant Response Index (A) (Canada Thistle; 4 WAT, 5.6 kg/h): 1 (25-49% inhibition)
Plant Response Index (A) (Canada Thistle; 4 WAT, 11.2 kg/h): 1 (25-49% inhibition)
Plant Response Index (A) (Canada Thistle; [10]): 1 (25-49% inhibition)
Plant Response Index (B) (Cocklebur; Table II, 2 WAT, 5.6 kg/h): 2 (50-74% inhibition)
Plant Response Index (B) (Cocklebur; [1]): 1 (25-49% inhibition)
Plant Response Index (B) (Cocklebur; Table II, 2 WAT, 11.2 kg/h): 2 (50-74% inhibition)
Plant Response Index (B) (Cocklebur; [2]): 1 (25-49% inhibition)
Plant Response Index (B) (Cocklebur; Table II, 4 WAT, 5.6 kg/h): 1 (25-49% inhibition)
Plant Response Index (B) (Cocklebur; Table II, 4 WAT, 11.2 kg/h): 2 (50-74% inhibition)
Plant Response Index (B) (Cocklebur; [3]): 1 (25-49% inhibition)
Plant Response Index (B) (Cocklebur; [4]): 1 (25-49% inhibition)
Plant Response Index (B) (Cocklebur; [5]): 0 (0-24% inhibition)
Plant Response Index (B) (Cocklebur; [6]): 1 (25-49% inhibition)
Plant Response Index (B) (Cocklebur; [7]): 0 (0-24% inhibition)
Plant Response Index (E) (Common Lambsquarters; Table II, 2 WAT, 5.6 kg/h): 1 (25-49% inhibition)
Plant Response Index (E) (Common Lambsquarters; [1]): 0 (0-24% inhibition)
Plant Response Index (E) (Common Lambsquarters; Table II, 2 WAT, 11.2 kg/h): 1 (25-49% inhibition)
Plant Response Index (E) (Common Lambsquarters; [2]): 0 (0-24% inhibition)
Plant Response Index (E) (Common Lambsquarters; Table II, 4 WAT, 5.6 kg/h): 0 (0-24% inhibition)
Plant Response Index (E) (Common Lambsquarters; Table II, 4 WAT, 11.2 kg/h): 2 (50-74% inhibition)
Plant Response Index (E) (Common Lambsquarters; [3]): 0 (0-24% inhibition)
Plant Response Index (E) (Common Lambsquarters; [4]): 0 (0-24% inhibition)
Plant Response Index (E) (Common Lambsquarters; [5]): 0 (0-24% inhibition)
Plant Response Index (E) (Common Lambsquarters; [6]): 0 (0-24% inhibition)
Plant Response Index (E) (Common Lambsquarters; [7]): 1 (25-49% inhibition)
Plant Response Index (J) (Downy Brome; Table II, 2 WAT, 5.6 kg/h): 0 (0-24% inhibition)
Plant Response Index (J) (Downy Brome; [1]): 0 (0-24% inhibition)
Plant Response Index (J) (Downy Brome; Table II, 2 WAT, 11.2 kg/h): 0 (0-24% inhibition)
Plant Response Index (J) (Downy Brome; [2]): 0 (0-24% inhibition)
Plant Response Index (J) (Downy Brome; Table II, 4 WAT, 5.6 kg/h): 0 (0-24% inhibition)
Plant Response Index (J) (Downy Brome; Table II, 4 WAT, 11.2 kg/h): 0 (0-24% inhibition)
Plant Response Index (J) (Downy Brome; [3]): 0 (0-24% inhibition)
Plant Response Index (J) (Downy Brome; [4]): 0 (0-24% inhibition)
Plant Response Index (J) (Downy Brome; [5]): 0 (0-24% inhibition)
Plant Response Index (J) (Downy Brome; [6]): 0 (0-24% inhibition)
Plant Response Index (J) (Downy Brome; [7]): 0 (0-24% inhibition)
Plant Response Index (R) (Hemp Sesbania; 2 WAT, 1.1 kg/h): 0 (0-24% inhibition)
Plant Response Index (R) (Hemp Sesbania; 2 WAT, 5.6 kg/h): 0 (0-24% inhibition)
Plant Response Index (R) (Hemp Sesbania; 2 WAT, .28 kg/h): 0 (0-24% inhibition)
Plant Response Index (R) (Hemp Sesbania; 4 WAT, 5.6 kg/h): 0 (0-24% inhibition)
Plant Response Index (I) (Johnsongrass; 2 WAT, 5.6 kg/h): 0 (0-24% inhibition)
Plant Response Index (I) (Johnsongrass; [8]): 0 (0-24% inhibition)
Plant Response Index (I) (Johnsongrass; 2 WAT, 11.2 kg/h): 1 (25-49% inhibition)
Plant Response Index (I) (Johnsongrass; [9]): 0 (0-24% inhibition)
Plant Response Index (I) (Johnsongrass; 4 WAT, 5.6 kg/h): 1 (25-49% inhibition)
Plant Response Index (I) (Johnsongrass; 4 WAT, 11.2 kg/h): 2 (50-74% inhibition)
Plant Response Index (I) (Johnsongrass; [10]): 0 (0-24% inhibition)
Plant Response Index (T) (Large Crabgrass; 2 WAT, 1.1 kg/h): 0 (0-24% inhibition)
Plant Response Index (T) (Large Crabgrass; 2 WAT, 5.6 kg/h): 1 (25-49% inhibition)
Plant Response Index (T) (Large Crabgrass; 2 WAT, .28 kg/h): 0 (0-24% inhibition)
Plant Response Index (T) (Large Crabgrass; 4 WAT, 5.6 kg/h): 1 (25-49% inhibition)
